By IC50 is commonly meant the concentration at which inhibition is half-maximal.

Here are results for 1 compound from BindingDB's records for doi:10.1016/j.bmcl.2010.10.018 (Merck Frosst Centre For Therapeutic Research, 2010).

The assay in a line: Antagonist activity at TP receptor in human platelet assessed as thromboxane A2- induced platelet aggregation.

Take `C[C@@H](c1ccc(C(F)(F)F)cc1)n1c2c(c3cc(F)cc(S(C)(=O)=O)c31)CCC[C@@H]2CC(=O)O` [2-((R)-6-fluoro-8-(methylsulfonyl)-9-((S)-1-(4-(trifluoromethyl)phenyl)ethyl)-2,3,4,9-tetrahydro-1H-carbazol-1-yl)acetic acid]: the IC50 came to 19.4 µM.
